Experimental data: patent US20200010910A1, “Cytotoxic Chemotherapy-Based Predictive Assays for Acute Myeloid Leukemia” (The Regents of The University of California, priority 2017, published 2020)

How the values were obtained:
[1] = tested on: six breast cancer cell lines; assay: carboplatin-DNA monoadducts by AMS in cell culture; format: cell-based, human; conditions: 4 hours exposure, range over cell lines and time points
Description: Cells were seeded in 60-mm dishes at a density of 1×10^6 cells/dish and allowed to attach overnight in a 37° C. humidified atmosphere containing 5% C02. Cells were treated with 1 μM (a relevant microdose concentration) and 100 μM (a therapeutically relevant concentration) carboplatin. Both the microdose and the therapeutic cell culture treatments included 0.3 μM of [^14C]carboplatin at a final concentration 50,000 dpm/ml for 4 hours, followed by washing and incubation in culture medium free of carboplatin. […] The number of carboplatin-DNA monoadducts was calculated based on the ^14C content in genomic DNA as measured by AMS. […] The concentration of the DNA was determined by its absorption at 260 nm using a Nanodrop spectrophotometer, and then the samples were stored frozen at −80° C. For AMS analysis, a DNA sample was thawed, mixed well by vortexing, and 1-10 μg of DNA was then submitted for AMS analysis, which includes the addition of 1.0 mg of tributyrin as a carrier, followed by combustion to CO2 and reduction to graphite according to published protocols (Ognibene, Ted J., et al. “A high-throughput method for the conversion of CO2 obtained from biochemical samples to graphite in septa-sealed vials for quantification of 14C via accelerator mass spectrometry.” Analytical chemistry 75.9 (2003): 2192-2196). […]

5637R = assay: MTT assay IC50, oxaliplatin-resistant bladder cancer sub-line; format: cell-based, human; conditions: 5637R, 72 hours
Description: Drug-DNA adduct formation and repair was measured by accelerator mass spectrometry.
To confirm that 5637 was the original ATCC cell line, and that 5637R originated from the parental 5637 cell line, both cultures were sent to the ATCC Cell Line Authentication Service for cell verification per the ATCC protocol. More specifically, fifteen short tandem repeat (STR) loci plus the gender determining locus, amelogenin, were amplified using the commercially available PowerPlex® 16HS Kit from Promega.
These two cell lines were also cultured with a range of concentrations of cisplatin, carboplatin, gemcitabine, doxorubicin, methotrexate and vinblastine for 72 hours to determine IC50 for these other drugs (FIG. 16C). These drugs were chosen because of their frequent use in the treatment of bladder cancer.

[2] = carboplatin plasma pharmacokinetics in mice; format: in vivo, Balb/c mice
Description: Balb/c mice received a bolus [^14C]carboplatin tail vein injection at microdose (0.373 mg/kg; 50,000 dpm/gm) or therapeutic dose (37.3 mg/kg; 50,000 dpm/gm). Mice were sacrificed in triplicate at 15 min, 1 h, 2 h, 8 h and 24 h. Concentrations of carboplatin in plasma were measured by liquid scintillation counting at each time point.

N.N.O=C([O-])C1(C(=O)[O-])CCC1.[Pt+2] [carboplatin]
DNA damage concentrations (carboplatin-DNA monoadducts) ([1]; microdose 1 μM carboplatin): 1-15 monoadducts per 10^8 nt
DNA damage concentrations (carboplatin-DNA monoadducts) ([1]; therapeutic dose 100 μM carboplatin): 100-1500 monoadducts per 10^8 nt
IC50 (5637R): 72.2 µM
Cmax ([2]; microdose 0.373 mg/kg): 1 µM
initial T1/2 ([2]; microdose 0.373 mg/kg bolus tail vein): 50 min
Cmax ([2]; therapeutic dose 37.3 mg/kg): 127 ± 30 µM
initial T1/2 ([2]; therapeutic dose 37.3 mg/kg bolus tail vein): 50 min
